Measured values from paper PMC7503713, “GANT61 Reduces Hedgehog Molecule (GLI1) Expression and Promotes Apoptosis in Metastatic Oral Squamous Cell Carcinoma Cells” (International Journal of Molecular Sciences, 2020).
pIC50: −log10 of the molar value.

Legend:
Assay type in all cases: cell-based, human
CAL27 = experiment: alamarBlue cytotoxicity assay, CAL27
Method: (§1) To assess the cytotoxicity of the GLI inhibitor GANT61 (Sigma-Aldrich, St. Louis, MO, USA) in tumor and non-tumor cell lines, an alamarBlue assay (Sigma-Aldrich Chemical Co, St. Louis, MO, USA) was performed after 72 h of exposure to the inhibitor, as described by Ahmed et al., 1994 [46]. Cells were distributed on 96-well plates at a density of 7 × 10^4 cells/mL for adhered cells, and 3 × 10^5 cells/mL for cells in suspension. All tested compounds were dissolved in DMSO, added to wells containing 100 µL of cells in complete medium, and then incubated for 72 h. Eight concentrations of GANT61 (0.19 to 50 µg/mL), Doxorubicin (Laboratory IMA S.A.I.C., Buenos Aires, Argentina), and 5-Fluorouracil (5-FU, Sigma-Aldrich, St. Louis, MO, USA), both used as positive controls at concentrations ranging from 0.03 to 5 µg/mL, were added to respective wells. Cells treated with the vehicle (0.5% DMSO) used to dilute the tested compounds were used as negative controls. Before the end of the incubation period (4 h for cell lines and 24 h for PBMCs), 20 µL of alamarBlue stock solution (resazurin, Sigma-Aldrich, St. Louis, MO, USA) was added to each well. Absorbance was measured at 570 nm (reduced) and 595 nm (oxidized) wavelengths, using a Spectramax 190 plate reader (Molecular Devices; Sunnyvale, CA, USA).
Statistical analyses were performed, using GraphPad Prism v. 6.03 (GraphPad Software, Inc., San Diego, USA). Data were analyzed according to distribution along the normal Gaussian curve. IC50 values were obtained through non-linear regression, using results from three independent experiments carried out in duplicate. Differences between groups resulting from in vitro assays were evaluated by ANOVA (analysis of variance) testing, followed by the Student–Newman–Keuls test. This study considered a level of significance, corresponding to alpha (α) or “p” value, when results were less than or equal to 5%.

SCC25 = experiment: alamarBlue cytotoxicity assay, SCC25; conditions: 72 h of incubation
Method: as §1, with “Cells treated with the vehicle (0.5% DMSO) used to dilute the tested compounds were used as negative controls. Before the end of the incubation period (4 h for cell lines and 24 h for PBMCs), 20 µL of alamarBlue stock solution (resazurin, Sigma-Aldrich, St. Louis, MO, USA) was added to each well.” left out
(§2) Statistical analyses were performed, using GraphPad Prism v. […] Data were analyzed according to distribution along the normal Gaussian curve. […] Differences between groups resulting from in vitro assays were evaluated by ANOVA (analysis of variance) testing, followed by the Student–Newman–Keuls test. […]

HL60 = experiment: alamarBlue cytotoxicity assay, HL60; conditions: 72 h of incubation
Method: as §1, with “Cells treated with the vehicle (0.5% DMSO) used to dilute the tested compounds were used as negative controls. Before the end of the incubation period (4 h for cell lines and 24 h for PBMCs), 20 µL of alamarBlue stock solution (resazurin, Sigma-Aldrich, St. Louis, MO, USA) was added to each well.” left out
as §2

APC02 = experiment: alamarBlue cytotoxicity assay, APC02; conditions: 72 h of incubation
Method: as §1, with “Cells treated with the vehicle (0.5% DMSO) used to dilute the tested compounds were used as negative controls. Before the end of the incubation period (4 h for cell lines and 24 h for PBMCs), 20 µL of alamarBlue stock solution (resazurin, Sigma-Aldrich, St. Louis, MO, USA) was added to each well.” left out
as §2

APC03 = experiment: alamarBlue cytotoxicity assay, APC03; conditions: 72 h of incubation
Method: as §1, with “Cells treated with the vehicle (0.5% DMSO) used to dilute the tested compounds were used as negative controls. Before the end of the incubation period (4 h for cell lines and 24 h for PBMCs), 20 µL of alamarBlue stock solution (resazurin, Sigma-Aldrich, St. Louis, MO, USA) was added to each well.” left out
as §2

HT-29 = experiment: alamarBlue cytotoxicity assay, HT-29; conditions: HT-29, alamarBlue, 72 h of incubation
Method: as §1, with “Cells treated with the vehicle (0.5% DMSO) used to dilute the tested compounds were used as negative controls. Before the end of the incubation period (4 h for cell lines and 24 h for PBMCs), 20 µL of alamarBlue stock solution (resazurin, Sigma-Aldrich, St. Louis, MO, USA) was added to each well.” left out
as §2

HaCat = experiment: alamarBlue cytotoxicity assay, HaCat; conditions: 72 h of incubation
Method: as §1, with “Cells treated with the vehicle (0.5% DMSO) used to dilute the tested compounds were used as negative controls. Before the end of the incubation period (4 h for cell lines and 24 h for PBMCs), 20 µL of alamarBlue stock solution (resazurin, Sigma-Aldrich, St. Louis, MO, USA) was added to each well.” left out
as §2

GLI2 mRNA = experiment: qPCR of HH pathway gene expression in HSC3 cells, GLI2; conditions: HSC3, 18 and 36 µM, 12 h, not significant
Method: For total RNA isolation, HSC3 cells were plated on 6-well plates, at a density of 0.7 × 10^5 cells/mL (5 mL/well volume), and incubated overnight, followed by treatment with the GLI inhibitor for 12 h at both concentrations (18 and 36 µM).
All experiments were carried out under DNAse/RNAse-free conditions. Silica microcolumns were used for RNA extraction, using an RNeasy Plus Mini Kit (QIAGEN, Hilden, Germany). Extracted RNA was analyzed for quantity and purity, using a NanoDrop®® 1000 spectrophotometer (Thermo Fisher Scientific, Waltham, MA, USA).
Reverse transcription was performed by using Superscript VILO™ transcriptase enzyme (Invitrogen, Carlsbad, CA, USA). The cDNA samples were stored at −20 °C, until the time of use.
HH pathway component expression was evaluated in cells treated or not with GANT61 by qPCR, using TaqMan Gene Expression Assays^TM inventoried for the PTCH1 (Hs00181117_m1), GLI1 (Hs01110766_m1), GLI2 (Hs01119974_m1), and GLI3 (Hs00609233_m1) genes, as well as for B2 M (Hs99999907_m1). […]
Following amplification and dissociation runs, quantification cycle (Cq) values were obtained by using the ViiA7^TM System Operational Program (AppliedByosistems, Foster City, CA, USA). For relative quantification, the comparative method (2−∆∆Cq) described by Livak and Schmittgen, 2001 was used. […]

HSC3 cells = experiment: Cell cycle and internucleosomal DNA fragmentation by flow cytometry (PI); conditions: for cells in S and G2/M phases: ≥48 h
Method: To study the effects of GANT61 on HSC3 cell viability, cycle, and death patterns, 4 mL of cellular solution (containing 0.7 × 10^5 cells/mL) was placed on 6-well plates and incubated overnight, to allow adhesion. […] For cell cycle analysis, the effects of GANT61 on HSC3 cells were also evaluated after 12 h of treatment. Negative controls were treated with the vehicle (0.2% DMSO) used to dilute the GLI inhibitor, and 5-fluorouracil (5-FU, 17 μM) was used as a positive control. All experiments were carried out in duplicate and repeated no less than three times. Cell viability was determined by the trypan blue exclusion method, in which 90 μL aliquots were collected at several incubation periods, stained with 10 μL trypan blue, and counted in a Neubauer chamber, under optical microscopy, at 20× magnification (Olympus CX41 Olympus, Tokyo, Japan).
Cellular nuclear DNA content was evaluated by flow cytometry, to differentiate among cell cycle phases, using PI (propidium iodide) as a fluorogenic agent. Following incubation with the GLI inhibitor, the supernatant was collected, and wells were washed with saline. Next, cells were trypsinized, then centrifuged (295× g for 5 min) together with the supernatant. Permeabilization was carried out by using a solution (300 µL) containing 0.1% triton X-100, 0.1% sodium citrate and 2 μg/mL of PI and 100 µg/mL RNase in distilled water, placed under dark conditions, at room temperature, for 30 min. Cells were then acquired (10,000 events/sample) and analyzed on a BD LSRFortessa flow cytometer, using BD FACSDiva software version 6.2 (Becton Dickinson Biosciences, San José, CA, USA). Proportions of fragmented internucleosomal DNA and cell cycle phases were determined by using Flowjo software v. 10 (Flowjo LCC, Ashland, OR, USA). Cells in sub-G1 phase were considered to present internucleosomal DNA fragmentation. Cellular debris was omitted from our analysis.

In the case of CN(C)c1ccccc1CN1CCCN(Cc2ccccc2N(C)C)C1c1ccncc1 [GANT61], the pIC50 (CAL27; 72 h of incubation) was < 3.94, the pIC50 (SCC25) was 4.27 and the pIC50 (HL60) was < 3.94. For the same molecule, the pIC50 (APC02) was < 3.94, the pIC50 (APC03) was < 3.94 and the pIC50 (HT-29) was < 3.94. For the same molecule, the pIC50 (HaCat) was 4.45, the “mRNA expression of GLI2” value (GLI2 mRNA) was “Reductions in mRNA expression” and the “cells in the sub-G0/G1 phase” value (HSC3 cells; 36 µM, 24 and 48 h, vs DMSO 0.2%) was “significantly higher numbers of cells”. The “percentage of HSC3 cells in the sub-G0/G1 phase” value (HSC3 cells; 36 µM, 12 h) was “significant increase”, the “number of cells in the G0-G1 phase” value (HSC3 cells; 36 µM, from 12 h forward) was “significant decrease” and the “cells in S and G2/M phases” value (HSC3 cells; 18 and 36 µM) was “significantly lower numbers of cells”.

In the case of O=c1[nH]cc(F)c(=O)[nH]1 [5-FU, 5-fluorouracil], the pIC50 (CAL27; Homo sapiens, CAL-27, 72 h of incubation) was 4.51 and the “cells in S and G2/M phases” value (HSC3 cells; 5-FU positive control) was “significantly lower numbers of cells”.
